Experimental data published in patent US20240148821A1, “PHARMACEUTICAL USE OF CYCLIC PEPTIDE COMPOUND” (CHUGAI SEIYAKU KABUSHIKI KAISHA, priority 2021, published 2024).
Numbered stars: 1 amine (or outer) side, 2 acyl side, 3 side chain; on linkers, the order of the positions; unused ones are H or OH. Bridge positions count the residues as written; N and C are the ends. Square brackets hold non-standard residues; d marks the D form. Peptide text beside a SMILES is read from it. * marks the point of attachment. hPhe(3-Cl-4-CF3) = N[C@@H](CCc1ccc(C(F)(F)F)c(Cl)c1)C(=O)O; hPhe(3-F,4-CF3) = N[C@@H](CCc1ccc(C(F)(F)F)c(F)c1)C(=O)O; NMePhe(4-Me) = CN[C@@H](Cc1ccc(C)cc1)C(=O)O; NMeNle(6-CHF2) = CN[C@@H](CCCCC(F)F)C(=O)O; NMePhe(3-F) = CN[C@@H](Cc1cccc(F)c1)C(=O)O; NMePhe(2-Me) = CN[C@@H](Cc1ccccc1C)C(=O)O; X72 = O=C([C@@H]1Cc2ccccc2N1[*:1])[*:2]; NMeGly(cPent) = CN[C@H](C(=O)O)C1CCCC1; NMeCha = CN[C@@H](CC1CCCCC1)C(=O)O; NEtLeu = CCN[C@@H](CC(C)C)C(=O)O; NMeChg = CN[C@H](C(=O)O)C1CCCCC1; NMeF = CN[C@@H](Cc1ccccc1)C(=O)O; NMeD = CN[C@@H](CC(=O)O)C(=O)O; NMeL = CN[C@@H](CC(C)C)C(=O)O; NMehSer = CN[C@@H](CCO)C(=O)O; NMeNva = CCC[C@H](NC)C(=O)O; NMeV = CN[C@H](C(=O)O)C(C)C; d(β3hA) = C[C@@H](N)CC(=O)O; NMeA = CN[C@@H](C)C(=O)O; Piperidide = C1CCN(*)CC1; Pyrrolidide = C1CCN(*)C1; dNMeA = CN[C@H](C)C(=O)O; Ac5c = NC1(C(=O)O)CCCC1; Aze = O=C(O)[C@@H]1CCN1; Aib = CC(C)(N)C(=O)O; Sar = CNCC(=O)O

test system: Human pancreatic cancer cell line AsPC-1 (G12D mutation Kras); assay: AsPC-1 cell growth inhibition (AsPC-1 CGI); assay type: cell-based; settings: read-out: AsPC-1 cell growth inhibition, 50% growth inhibitory concentration (IC50 value); 96 hours, CellTiter-Glo, values classified in ranges
Description: Test compounds were serially dilated with dimethyl sulfoxide, and 200 nL was then dispensed to a U-bottom 96-well plate using Labcyte Echo. […] The cell suspension was dispensed to a. plate containing a test compound at 100 μL per well and incubated at 37° C. in a 5% carbon dioxide gas incubator. 96 hours later, 80 μL of CellTiter-Glo (Promega) was added to each well and fluorescence was measured.

`CC[C@H](C)[C@@H]1NC(=O)[C@H](C)N(C)C(=O)C[C@@H](C(=O)N2CCCCC2)N(C)C(=O)[C@H](C(C)C)N(C)C(=O)C2(CCCC2)NC(=O)[C@@H]2CCCN2C(=O)[C@H](CCc2ccc(C(F)(F)F)c(Cl)c2)NC(=O)[C@@H](C)N(C)C(=O)[C@H](Cc2ccccc2)N(C)C(=O)[C@@H]2CCCN2C(=O)CN(C)C1=O` [Compound 1806] ([NMeA]I[Sar]P[NMeF][dNMeA][hPhe(3-Cl-4-CF3)]P[Ac5c][NMeV][NMeD]-Piperidide; lactam N-11) and `CC[C@H](C)[C@@H]1NC(=O)[C@H](C)N(C)C(=O)C[C@@H](C(=O)N2CCCCC2)N(C)C(=O)[C@H](C(C)C)N(C)C(=O)C2(CCCC2)NC(=O)[C@H](Cc2cccc(F)c2)N(C)C(=O)[C@H](CCc2ccc(C(F)(F)F)c(Cl)c2)NC(=O)CN(C)C(=O)[C@H](CC2CCCCC2)N(C)C(=O)CN(C)C(=O)CN(C)C1=O` [Compound 945] ([NMeA]I[Sar][Sar][NMeCha][Sar][hPhe(3-Cl-4-CF3)][NMePhe(3-F)][Ac5c][NMeV][NMeD]-Piperidide; lactam N-11) cannot be ordered by IC50: greater than 500 nM for the first, greater than 500 nM for the second.

`CC(C)C[C@H]1C(=O)N[C@@H](C(C)C)C(=O)N(C)CC(=O)N(C)CC(=O)N(C)[C@@H](CC2CCCCC2)C(=O)N(C)CC(=O)N[C@@H](CCc2ccc(C(F)(F)F)c(F)c2)C(=O)N2CCC[C@H]2C(=O)NC2(CCCC2)C(=O)N(C)[C@@H](CC(C)C)C(=O)N[C@H](C)CC(=O)N1C` [Compound 1493] (cyclo([Ac5c][NMeL][d(β3hA)][NMeL]V[Sar][Sar][NMeCha][Sar][hPhe(3-F,4-CF3)]P)) and `CC[C@H](C)[C@@H]1NC(=O)[C@H](CC(C)C)N(C)C(=O)C[C@@H](C)NC(=O)[C@H](CC(C)C)N(C)C(=O)C2(CCCC2)NC(=O)[C@@H]2CCN2C(=O)[C@H](CCc2ccc(C(F)(F)F)c(F)c2)NC(=O)CN(C)C(=O)[C@H](CC2CCCCC2)N(C)C(=O)CN(C)C(=O)CN(C)C1=O` [Compound 1545] (cyclo([Ac5c][NMeL][d(β3hA)][NMeL]I[Sar][Sar][NMeCha][Sar][hPhe(3-F,4-CF3)][Aze])) cannot be ordered by IC50: greater than 500 nM for the first, greater than 500 nM for the second.

`CC[C@H](C)[C@@H]1NC(=O)[C@H](CC(C)C)N(C)C(=O)C[C@@H](C(=O)N(C)C)N(C)C(=O)[C@H](C2CCCC2)N(C)C(=O)C2(CCCC2)NC(=O)[C@H](Cc2ccccc2C)N(C)C(=O)[C@H](CCc2ccc(C(F)(F)F)c(Cl)c2)NC(=O)CN(C)C(=O)[C@H](CC2CCCCC2)N(C)C(=O)[C@@H]2CCN2C(=O)[C@H](C)N(C)C1=O` [Compound 1880] ([NMeL]I[NMeA][Aze][NMeCha][Sar][hPhe(3-Cl-4-CF3)][NMePhe(2-Me)][Ac5c][NMeGly(cPent)][NMeD]-NMe2; lactam N-11) and `CC[C@H](C)[C@@H]1NC(=O)[C@H](CC(C)C)N(C)C(=O)C[C@@H](C(=O)N2CCCCC2)N(C)C(=O)[C@H](C2CCCCC2)N(C)C(=O)C2(CCCC2)NC(=O)[C@@H]2Cc3ccccc3N2C(=O)[C@H](CCc2ccc(C(F)(F)F)c(Cl)c2)NC(=O)CN(C)C(=O)[C@H](CC2CCCCC2)N(C)C(=O)[C@@H]2CCN2C(=O)[C@H](C)N(C)C1=O` [Compound 812] ([NMeL]I[NMeA][Aze][NMeCha][Sar][hPhe(3-Cl-4-CF3)][X72][Ac5c][NMeChg][NMeD]-Piperidide; lactam N-11) cannot be ordered by IC50: greater than 500 nM for the first, greater than 500 nM for the second.

`CC[C@H](C)[C@@H]1NC(=O)[C@H](CC(C)C)N(C)C(=O)C[C@@H](C(=O)N2CCCCC2)N(C)C(=O)[C@H](CC(C)C)N(C)C(=O)C(C)(C)NC(=O)[C@H](CC(C)C)N(C)C(=O)[C@H](CCc2ccc(C(F)(F)F)c(F)c2)NC(=O)CN(C)C(=O)[C@H](CCCCC(F)F)N(C)C(=O)CN(C)C(=O)CN(C)C1=O` [Compound 1456] ([NMeL]I[Sar][Sar][NMeNle(6-CHF2)][Sar][hPhe(3-F,4-CF3)][NMeL][Aib][NMeL][NMeD]-Piperidide; lactam N-11) and `CC[C@H](C)[C@@H]1NC(=O)[C@H](CC(C)C)N(C)C(=O)C[C@@H](C(=O)N2CCCCC2)N(C)C(=O)[C@H](CCOC)N(C)C(=O)C2(CCCC2)NC(=O)[C@@H]2CCCN2C(=O)[C@H](CCc2ccc(C(F)(F)F)c(Cl)c2)NC(=O)CN(C)C(=O)[C@H](CC2CCCCC2)N(C)C(=O)[C@@H]2CCN2C(=O)[C@H](C)N(C)C1=O` [Compound 141] ([NMeL]I[NMeA][Aze][NMeCha][Sar][hPhe(3-Cl-4-CF3)]P[Ac5c][NMehSer](Me)[NMeD]-Piperidide; lactam N-11) cannot be ordered by IC50: greater than 500 nM for the first, greater than 500 nM for the second.

`CCC[C@H]1C(=O)N[C@@H]([C@@H](C)CC)C(=O)N(C)CC(=O)N(C)CC(=O)N(C)[C@@H](CC2CCCCC2)C(=O)N(C)CC(=O)N[C@@H](CCc2ccc(C(F)(F)F)c(Cl)c2)C(=O)N2CCC[C@H]2C(=O)NC2(CCCC2)C(=O)N(C)[C@@H](C2CCCCC2)C(=O)N(C)[C@H](C(=O)N2CCCC2)CC(=O)N1C` [Compound 2001] ([NMeNva]I[Sar][Sar][NMeCha][Sar][hPhe(3-Cl-4-CF3)]P[Ac5c][NMeChg][NMeD]-Pyrrolidide; lactam N-11) and `CC[C@H](C)[C@@H]1NC(=O)[C@H](CC(C)C)N(CC)C(=O)C[C@@H](C(=O)N(C)C)N(C)C(=O)[C@H](C2CCCC2)N(C)C(=O)C2(CCCC2)NC(=O)[C@@H]2CCCN2C(=O)[C@H](CCc2ccc(C(F)(F)F)c(Cl)c2)NC(=O)CN(C)C(=O)[C@H](Cc2ccc(C)cc2)N(C)C(=O)[C@@H]2CCN2C(=O)[C@H](C)N(C)C1=O` [Compound 1148] ([NEtLeu]I[NMeA][Aze][NMePhe(4-Me)][Sar][hPhe(3-Cl-4-CF3)]P[Ac5c][NMeGly(cPent)][NMeD]-NMe2; lactam N-11) cannot be ordered by IC50: no more than 20 nM for the first, no more than 20 nM for the second.
